PubChem BioAssay (NCI)
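Compound exposure: 48 hours, 5 concentrations, 96-well plates. GI50 marks 50% less growth. The concentration for full growth arrest is given as TGI.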

Assays:
Assay in all cases: growth of human tumour cells (NCI), 48 h
786-0 renal = test system: 786-0 renal
A498 renal = test system: A498 renal
A549 NSCLC = test system: A549 NSCLC
ACHN renal = test system: ACHN renal
BT-549 breast = test system: BT-549 breast
CAKI-1 renal = test system: CAKI-1 renal
CCRF-CEM leukemia = test system: CCRF-CEM leukemia
COLO 205 colon = test system: COLO 205 colon
DU-145 prostate = test system: DU-145 prostate
EKVX NSCLC = test system: EKVX NSCLC
HCT-116 colon = test system: HCT-116 colon
HCT-15 colon = test system: HCT-15 colon
HL-60(TB) leukemia = test system: HL-60(TB) leukemia
HOP-62 NSCLC = test system: HOP-62 NSCLC
HOP-92 NSCLC = test system: HOP-92 NSCLC
HS 578T breast = test system: HS 578T breast
IGROV1 ovarian = test system: IGROV1 ovarian
KM12 colon = test system: KM12 colon
LOX IMVI melanoma = test system: LOX IMVI melanoma
M14 melanoma = test system: M14 melanoma
MALME-3M melanoma = test system: MALME-3M melanoma
MCF7 breast = test system: MCF7 breast
MDA-MB-231 breast = test system: MDA-MB-231 breast
MDA-MB-435 = test system: MDA-MB-435
MDA-MB-468 breast = test system: MDA-MB-468 breast
MOLT-4 leukemia = test system: MOLT-4 leukemia

Compound `COc1ccc2[nH]cc(-c3cc4nc(-c5cn(C)c6ncccc56)cc(N)n4n3)c2c1` has a GI50 (786-0 renal) of 1.54 µM, a TGI (786-0 renal) of 2.92 µM and a GI50 (A498 renal) of 25.3 µM. The TGI (A498 renal) was 49.4 µM, the GI50 (A549 NSCLC) was 2.75 µM and the TGI (A549 NSCLC) was > 100 µM. It also gave a GI50 (ACHN renal) of 3.48 µM, a TGI (ACHN renal) of 12.5 µM and a GI50 (BT-549 breast) of 7.03 µM. It also gave a TGI (BT-549 breast) of 38.3 µM, a GI50 (CAKI-1 renal) of 4.03 µM and a TGI (CAKI-1 renal) of 23.5 µM. The GI50 (CCRF-CEM leukemia) was 2.56 µM, the TGI (CCRF-CEM leukemia) was > 100 µM and the GI50 (COLO 205 colon) was 4.71 µM. The TGI (COLO 205 colon) was > 100 µM, the GI50 (DU-145 prostate) was 6.36 µM and the TGI (DU-145 prostate) was > 100 µM. For the same compound, the GI50 (EKVX NSCLC) was 8.55 µM, the TGI (EKVX NSCLC) was 62.3 µM and the GI50 (HCT-116 colon) was 3.6 µM. It also gave a TGI (HCT-116 colon) of 33.5 µM, a GI50 (HCT-15 colon) of 1.91 µM and a TGI (HCT-15 colon) of 4.53 µM. For the same compound, the GI50 (HL-60(TB) leukemia) was 1.48 µM, the TGI (HL-60(TB) leukemia) was 4.78 µM and the GI50 (HOP-62 NSCLC) was 10.2 µM. For the same compound, the TGI (HOP-62 NSCLC) was > 100 µM, the GI50 (HOP-92 NSCLC) was 4.84 µM and the TGI (HOP-92 NSCLC) was 51.7 µM. For the same compound, the GI50 (HS 578T breast) was 20.3 µM, the TGI (HS 578T breast) was 64.6 µM and the GI50 (IGROV1 ovarian) was 2.12 µM. The TGI (IGROV1 ovarian) was 4.93 µM, the GI50 (KM12 colon) was 3.41 µM and the TGI (KM12 colon) was > 100 µM. It also gave a GI50 (LOX IMVI melanoma) of 2.02 µM, a TGI (LOX IMVI melanoma) of 3.6 µM and a GI50 (M14 melanoma) of 4.56 µM. The TGI (M14 melanoma) was 32.3 µM, the GI50 (MALME-3M melanoma) was 5.02 µM and the TGI (MALME-3M melanoma) was 18.3 µM. The GI50 (MCF7 breast) was 2.01 µM, the TGI (MCF7 breast) was 4.94 µM and the GI50 (MDA-MB-231 breast) was 2.33 µM. For the same compound, the TGI (MDA-MB-231 breast) was 5.2 µM, the GI50 (MDA-MB-435) was 10.8 µM and the TGI (MDA-MB-435) was 27.8 µM. It also gave a GI50 (MDA-MB-468 breast) of 1.53 µM, a TGI (MDA-MB-468 breast) of 3.12 µM and a GI50 (MOLT-4 leukemia) of 1.79 µM.
